This assay has as its system L. donovani amastigotes in THP-1 macrophages, DAPI imaging, 72 h. The experiment in a line: antileishmanial activity in infected macrophages – imaging, THP-1 host macrophages, single concentration (AID 977614).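 Further: signal is the parasite per host cell ratio from DAPI stained kinetoplasts and nuclei.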

Calls of active or inactive are those of the source.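 How the source made its calls: active means parasite count per well reduced by over 3 SD from the mean, with host cell number above 80% of untreated; inactive means the rest.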

Regarding `C[C@H](CO)N1C[C@H](C)[C@H](CN(C)C(=O)Nc2cccc(Oc3ccccn3)c2)OCc2cnnn2CCCC1=O`, the AC50 was > 10 µM (inactive).
The result for `Cc1noc(C)c1NC(=O)N(C)C[C@@H]1OCc2cnnn2CCCC(=O)N([C@@H](C)CO)C[C@@H]1C` reads > 10 µM (inactive).
The result for `COc1cccc(C(=O)N2C[C@H]3[C@@H](c4ccccc42)[C@H](CO)N3C(=O)c2cccc(F)c2)c1` reads > 10 µM (inactive).
Then `C/C=C/c1ccc([C@@H]2[C@H](CO)N(C(C)=O)[C@H]2CN(CC)C(=O)CN(C)C)cc1`, with > 10 µM (inactive).
Turning to `CCNC[C@@H]1[C@H](c2ccccc2)[C@H](CO)N1C(=O)Cc1ccccn1`, the AC50 is > 10 µM (inactive).
As to `O=C(C1CC1)N1C[C@H]2[C@@H](c3ccccc31)[C@@H](CO)N2C(=O)c1ccccc1`, the AC50 was > 10 µM (inactive).
For `C/C=C/c1ccc([C@H]2[C@H](CO)N(C(C)=O)[C@H]2CNC(=O)c2ccccc2)cc1`, the AC50 was > 10 µM (inactive).
Then `O=C(c1ccccc1)N1C[C@@H]2[C@H](c3ccccc31)[C@H](CO)N2Cc1ccccn1`, with > 10 µM (inactive); and `Cc1noc(C)c1S(=O)(=O)N(C)C[C@H]1OCc2cnnn2CCCC(=O)N([C@@H](C)CO)C[C@H]1C`, with > 10 µM (inactive).
Then `O=S(=O)(NC[C@H]1[C@@H](c2ccccc2)[C@H](CO)N1CC1CC1)c1ccccc1`, with > 10 µM (inactive); and `O=S(=O)(NC[C@H]1[C@H](c2ccccc2)[C@H](CO)N1CC1CC1)c1ccccc1`, with > 10 µM (inactive); and `CCCNC(=O)N1[C@H](CO)[C@H](c2ccc(-c3ccc(C#N)cc3)cc2)[C@@H]1CNC`, with > 10 µM (inactive).
`C/C=C/c1ccc([C@@H]2[C@H](CO)N(C(C)=O)[C@H]2CN(C(C)=O)C2CCCC2)cc1`: the AC50 is > 10 µM (inactive).
Then `O=C(C1CCCCC1)N1[C@H](CO)[C@H]2c3ccccc3NC[C@H]21`, with > 10 µM (inactive).
The result for `COCC(=O)N1C[C@H]2[C@@H](c3ccccc31)[C@H](CO)N2C(=O)c1ccccc1F` reads > 10 µM (inactive); that for `CC(=O)N1[C@@H](CO)[C@@H](c2ccccc2)[C@@H]1CN(CC(C)C)C(=O)c1ccccn1`, > 10 µM (inactive).
The result for `O=C(c1ccc2c(c1)OCO2)N1C[C@@H]2[C@H](c3ccccc31)[C@@H](CO)N2C(=O)CC1CC1` reads > 10 µM (inactive); that for `O=C(Cc1ccccn1)N1[C@H](CO)[C@H]2c3ccccc3NC[C@H]21`, > 10 µM (inactive).
Consider `C[C@H]1CN([C@@H](C)CO)C(=O)CCCn2nncc2CO[C@@H]1CN(C)Cc1ccc2cccnc2c1`, for which the AC50 was > 10 µM (inactive).
Then `CC(C)NC(=O)N1[C@@H]2CNc3ccccc3[C@@H]2[C@@H]1CO`, with > 10 µM (inactive); and `C/C=C/c1ccc([C@@H]2[C@@H](CO)N[C@@H]2CN(CC(C)C)C(=O)c2ccccn2)cc1`, with > 10 µM (inactive).
The result for `C/C=C/c1ccc([C@@H]2[C@@H](CO)N(C(C)=O)[C@H]2CN(CC)C(=O)CN(C)C)cc1` reads > 10 µM (inactive); that for `COCC(=O)NC[C@@H]1[C@@H](c2ccccc2)[C@H](CO)N1C(=O)c1ccccc1`, > 10 µM (inactive); that for `C[C@@H]1CN([C@@H](C)CO)C(=O)CCCn2nncc2CO[C@H]1CN(C)C(=O)CCC(F)(F)F`, > 10 µM (inactive).
Then `CCCNC(=O)N1[C@H](CO)[C@@H]2c3ccccc3N(C(=O)c3ccncc3)C[C@@H]21`, with > 10 µM (inactive); and `C[C@@H]1CN([C@@H](C)CO)C(=O)CCCn2nncc2CO[C@H]1CN(C)Cc1cccc(C(F)(F)F)c1`, with > 10 µM (inactive); and `COc1ccc(C(=O)N2C[C@H]3[C@@H](c4ccccc42)[C@@H](CO)N3C(=O)NC(C)C)cc1`, with > 10 µM (inactive).
With `C[C@@H]1CN([C@@H](C)CO)C(=O)CCCn2nncc2CO[C@H]1CN(C)C(=O)c1cc(-c2ccccc2)on1`, the AC50 is > 10 µM (inactive).
Then `CCC(=O)N1[C@@H](CO)[C@H](c2ccccc2)[C@@H]1CN(C)C(=O)CN1CCOCC1`, with > 10 µM (inactive).
The result for `CNC[C@@H]1OCc2cnnn2CCCC(=O)N([C@H](C)CO)C[C@H]1C` reads > 10 µM (inactive).
The result for `O=C(NC[C@H]1N[C@H](CO)[C@@H]1c1ccc(-c2ccccc2)cc1)c1cccc(F)c1` reads > 10 µM (inactive); that for `C[C@H](CO)N1C[C@H](C)[C@H](CN(C)C(=O)CCC(F)(F)F)OCc2cn(nn2)CCCC1=O`, > 10 µM (inactive); that for `COc1cccc(NC(=O)N2[C@H](CO)[C@@H](c3ccccc3)[C@H]2CNCC(C)C)c1`, > 10 µM (inactive).
Turning to `C[C@@H]1CN([C@H](C)CO)C(=O)CCCn2cc(nn2)CO[C@@H]1CN(C)C(=O)Nc1ccc2c(c1)OCO2`, the AC50 is > 10 µM (inactive).
As for `C[C@@H]1CN([C@H](C)CO)C(=O)CCCn2nncc2CO[C@@H]1CN(C)S(=O)(=O)c1ccc2c(c1)OCCCO2`, the AC50 was > 10 µM (inactive).
The result for `O=C(C1CCOCC1)N1C[C@@H]2[C@H](c3ccccc31)[C@@H](CO)N2C(=O)Nc1ccccc1F` reads > 10 µM (inactive); that for `COc1ccccc1NC(=O)N1C[C@H]2[C@@H](c3ccccc31)[C@H](CO)N2CC1CCOCC1`, > 10 µM (inactive).
Then `C[C@@H]1CN([C@@H](C)CO)C(=O)CCCn2cc(nn2)CO[C@@H]1CN(C)C(=O)CCC(F)(F)F`, with > 10 µM (inactive); and `CN(Cc1ccccc1F)C[C@H]1[C@@H](c2ccccc2)[C@@H](CO)N1S(C)(=O)=O`, with > 10 µM (inactive); and `O=C(NC[C@H]1[C@@H](c2ccccc2)[C@H](CO)N1Cc1cccnc1)c1ccccn1`, with > 10 µM (inactive).
As to `CCC(=O)N1C[C@H]2[C@@H](c3ccccc31)[C@@H](CO)N2C(=O)CC1CC1`, the AC50 was > 10 µM (inactive).
For the compound `CCN(C[C@H]1N[C@H](CO)[C@H]1c1ccccc1)C(=O)c1ccncc1`, the AC50 was > 10 µM (inactive).
On to `CNC[C@@H]1OCc2cn(nn2)CCCC(=O)N([C@H](C)CO)C[C@H]1C`, for which the AC50 was > 10 µM (inactive).
For `C/C=C/c1ccc([C@H]2[C@@H](CNC(=O)CC3CC3)N(C(=O)CC)[C@H]2CO)cc1`, the AC50 is > 10 µM (inactive).
The result for `C[C@H]1CN([C@@H](C)CO)C(=O)CCCn2cc(nn2)CO[C@@H]1CN(C)C(=O)Oc1ccc2ccccc2c1` reads > 10 µM (inactive).
Then `C[C@H](CO)N1C[C@H](C)[C@H](CN(C)C(=O)Nc2ccc3c(c2)OCO3)OCc2cn(nn2)CCCC1=O`, with > 10 µM (inactive); and `C[C@H]1CN([C@@H](C)CO)C(=O)CCCn2nncc2CO[C@H]1CN(C)C(=O)Oc1cccc2ccccc12`, with > 10 µM (inactive).
The result for `O=C(Nc1ccccc1Cl)N1C[C@H]2[C@@H](c3ccccc31)[C@@H](CO)N2C(=O)c1cccnc1` reads > 10 µM (inactive); that for `CCCNC(=O)N1C[C@@H]2[C@H](c3ccccc31)[C@H](CO)N2C(=O)CN1CCOCC1`, > 10 µM (inactive).
As for `C[C@@H]1CN([C@H](C)CO)C(=O)CCCn2nncc2CO[C@H]1CN(C)Cc1ccccc1C(=O)O`, the AC50 is > 10 µM (inactive).

The values above are taken from PubChem BioAssay AID977614 (Broad Institute, 2014).
